The structures appear in SMILES notation.

Holding throughout (assay): Selectivity profiling, QuickScout TK Screening Panel
Format in all cases: biochemical

One experiment deals with T1, IGF1R (Homo sapiens, UniProt P08069).
T1 construct: purchased Carna Biosciences
Here is the method:
(§1) The inhibitory effects of Compound 1 against 20 tyrosine kinases and 30 serine/threonine kinases were investigated using QuickScout™ TK and STK Screening Panel (Carna Biosciences, Kobe Japan). […] The results reveal that Compound 1 inhibits TNIK_N more potently (IC50; 9 nM) than the other 50 kinases.

For another experiment, the target named is T2, JAK3 (Homo sapiens, UniProt P52333).
T2 construct: purchased Carna Biosciences
T2 sequence (P52333 whole entry): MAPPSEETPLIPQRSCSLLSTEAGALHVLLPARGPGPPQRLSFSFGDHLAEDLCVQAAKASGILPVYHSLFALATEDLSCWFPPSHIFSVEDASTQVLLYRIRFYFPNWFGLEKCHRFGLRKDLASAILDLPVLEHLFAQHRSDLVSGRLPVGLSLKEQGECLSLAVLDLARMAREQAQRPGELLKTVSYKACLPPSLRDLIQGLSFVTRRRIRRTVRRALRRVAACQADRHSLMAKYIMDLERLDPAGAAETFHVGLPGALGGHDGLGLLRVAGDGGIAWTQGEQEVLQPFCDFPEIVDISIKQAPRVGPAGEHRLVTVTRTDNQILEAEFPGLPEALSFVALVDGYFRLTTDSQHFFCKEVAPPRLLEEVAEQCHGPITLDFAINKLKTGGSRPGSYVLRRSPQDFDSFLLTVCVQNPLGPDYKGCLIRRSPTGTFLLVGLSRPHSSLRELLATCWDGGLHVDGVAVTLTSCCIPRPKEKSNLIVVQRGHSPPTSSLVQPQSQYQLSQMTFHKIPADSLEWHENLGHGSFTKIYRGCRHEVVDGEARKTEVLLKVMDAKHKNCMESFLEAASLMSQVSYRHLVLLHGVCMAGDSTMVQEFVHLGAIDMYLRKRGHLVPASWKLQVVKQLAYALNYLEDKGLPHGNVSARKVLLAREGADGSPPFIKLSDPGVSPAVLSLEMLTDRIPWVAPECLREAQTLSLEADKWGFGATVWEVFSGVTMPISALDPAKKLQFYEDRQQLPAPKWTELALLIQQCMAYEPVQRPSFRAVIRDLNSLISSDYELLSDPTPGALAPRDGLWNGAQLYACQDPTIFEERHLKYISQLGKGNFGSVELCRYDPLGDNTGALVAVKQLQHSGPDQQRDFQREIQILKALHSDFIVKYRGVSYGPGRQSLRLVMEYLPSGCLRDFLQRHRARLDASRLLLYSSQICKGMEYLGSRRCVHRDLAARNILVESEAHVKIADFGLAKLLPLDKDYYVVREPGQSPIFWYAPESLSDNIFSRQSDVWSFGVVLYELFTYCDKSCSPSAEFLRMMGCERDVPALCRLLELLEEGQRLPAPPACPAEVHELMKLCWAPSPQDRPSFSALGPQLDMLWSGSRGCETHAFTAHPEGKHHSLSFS
Here is the method: as §1

A further experiment deals with T3, ITK (Homo sapiens, UniProt Q08881).
T3 construct: purchased Carna Biosciences
Here is the method:
as §1

The next experiment has as its target T4, ABL (Homo sapiens, UniProt P00519).
T4 construct: purchased Carna Biosciences
Here is the method: as §1

Another experiment deals with T5, SRC (Homo sapiens, UniProt P12931).
T5 construct: purchased Carna Biosciences
Here is the method: as §1

The target in the next experiment is T6, TYRO3 (Homo sapiens, UniProt Q06418).
T6 construct: purchased Carna Biosciences
T6 sequence (Q06418 41-890): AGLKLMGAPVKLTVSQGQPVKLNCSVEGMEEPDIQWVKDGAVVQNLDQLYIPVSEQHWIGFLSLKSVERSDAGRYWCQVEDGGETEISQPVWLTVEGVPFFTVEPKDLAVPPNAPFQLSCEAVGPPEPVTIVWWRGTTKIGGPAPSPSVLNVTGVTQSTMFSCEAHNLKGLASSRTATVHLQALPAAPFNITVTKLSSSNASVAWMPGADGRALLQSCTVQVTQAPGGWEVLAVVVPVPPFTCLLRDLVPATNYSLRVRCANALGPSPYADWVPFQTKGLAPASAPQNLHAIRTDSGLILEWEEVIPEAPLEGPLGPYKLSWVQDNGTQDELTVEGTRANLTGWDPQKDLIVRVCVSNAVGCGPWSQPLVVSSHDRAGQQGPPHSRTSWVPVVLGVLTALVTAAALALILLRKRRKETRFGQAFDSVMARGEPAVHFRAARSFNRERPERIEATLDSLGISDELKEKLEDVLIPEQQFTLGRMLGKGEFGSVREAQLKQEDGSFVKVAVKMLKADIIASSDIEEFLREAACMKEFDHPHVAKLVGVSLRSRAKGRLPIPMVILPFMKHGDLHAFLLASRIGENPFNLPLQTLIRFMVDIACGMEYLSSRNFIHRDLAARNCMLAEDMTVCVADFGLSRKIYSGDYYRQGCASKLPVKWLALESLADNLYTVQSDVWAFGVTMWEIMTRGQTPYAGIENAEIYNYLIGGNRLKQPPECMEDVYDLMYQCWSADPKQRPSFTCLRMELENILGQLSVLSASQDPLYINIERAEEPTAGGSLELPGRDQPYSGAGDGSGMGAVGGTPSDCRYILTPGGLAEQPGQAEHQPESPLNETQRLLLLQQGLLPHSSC
Here is the method:
as §1

In the next experiment the target is T7, EphA2 (Homo sapiens, UniProt P29317).
T7 construct: purchased Carna Biosciences
Here is the method: as §1

The target in a further experiment is T8, FLT3 (Homo sapiens, UniProt P36888).
T8 construct: purchased Carna Biosciences
Here is the method: as §1

A further experiment has as its target T9, KDR (Homo sapiens, UniProt P35968).
T9 construct: purchased Carna Biosciences
Here is the method: as §1

Another experiment addresses T10, LCK (Homo sapiens, UniProt P06239).
T10 construct: purchased Carna Biosciences
Here is the method:
as §1

In the next experiment the target is T11, TRKA (Homo sapiens, UniProt P04629).
T11 construct: purchased Carna Biosciences
T11 sequence (P04629 33-796): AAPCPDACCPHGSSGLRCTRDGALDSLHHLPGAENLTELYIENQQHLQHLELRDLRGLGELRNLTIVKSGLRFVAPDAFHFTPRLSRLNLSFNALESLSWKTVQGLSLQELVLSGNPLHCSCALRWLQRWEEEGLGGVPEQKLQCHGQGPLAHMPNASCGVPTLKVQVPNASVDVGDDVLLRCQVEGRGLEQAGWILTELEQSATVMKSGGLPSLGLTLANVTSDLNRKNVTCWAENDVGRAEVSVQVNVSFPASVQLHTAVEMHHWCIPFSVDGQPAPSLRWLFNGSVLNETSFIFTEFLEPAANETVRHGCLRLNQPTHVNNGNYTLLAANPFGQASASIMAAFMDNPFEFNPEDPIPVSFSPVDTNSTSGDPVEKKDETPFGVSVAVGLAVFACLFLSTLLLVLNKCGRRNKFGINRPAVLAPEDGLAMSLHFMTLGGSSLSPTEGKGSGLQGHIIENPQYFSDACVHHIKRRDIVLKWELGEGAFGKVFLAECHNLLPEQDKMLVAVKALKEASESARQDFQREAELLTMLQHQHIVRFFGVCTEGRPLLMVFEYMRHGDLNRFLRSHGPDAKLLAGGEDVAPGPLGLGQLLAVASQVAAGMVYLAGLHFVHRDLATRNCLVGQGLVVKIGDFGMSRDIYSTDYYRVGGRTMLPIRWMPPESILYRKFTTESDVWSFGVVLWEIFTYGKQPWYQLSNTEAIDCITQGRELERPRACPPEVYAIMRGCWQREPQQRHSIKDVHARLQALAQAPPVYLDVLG
Here is the method:
as §1

The target of another experiment is T12, EphB4 (Homo sapiens, UniProt P54760).
T12 construct: purchased Carna Biosciences
Here is the method: as §1

In another experiment the target is T13, PYK2 (Homo sapiens, UniProt Q14289).
T13 construct: purchased Carna Biosciences
T13 sequence (Q14289 whole entry): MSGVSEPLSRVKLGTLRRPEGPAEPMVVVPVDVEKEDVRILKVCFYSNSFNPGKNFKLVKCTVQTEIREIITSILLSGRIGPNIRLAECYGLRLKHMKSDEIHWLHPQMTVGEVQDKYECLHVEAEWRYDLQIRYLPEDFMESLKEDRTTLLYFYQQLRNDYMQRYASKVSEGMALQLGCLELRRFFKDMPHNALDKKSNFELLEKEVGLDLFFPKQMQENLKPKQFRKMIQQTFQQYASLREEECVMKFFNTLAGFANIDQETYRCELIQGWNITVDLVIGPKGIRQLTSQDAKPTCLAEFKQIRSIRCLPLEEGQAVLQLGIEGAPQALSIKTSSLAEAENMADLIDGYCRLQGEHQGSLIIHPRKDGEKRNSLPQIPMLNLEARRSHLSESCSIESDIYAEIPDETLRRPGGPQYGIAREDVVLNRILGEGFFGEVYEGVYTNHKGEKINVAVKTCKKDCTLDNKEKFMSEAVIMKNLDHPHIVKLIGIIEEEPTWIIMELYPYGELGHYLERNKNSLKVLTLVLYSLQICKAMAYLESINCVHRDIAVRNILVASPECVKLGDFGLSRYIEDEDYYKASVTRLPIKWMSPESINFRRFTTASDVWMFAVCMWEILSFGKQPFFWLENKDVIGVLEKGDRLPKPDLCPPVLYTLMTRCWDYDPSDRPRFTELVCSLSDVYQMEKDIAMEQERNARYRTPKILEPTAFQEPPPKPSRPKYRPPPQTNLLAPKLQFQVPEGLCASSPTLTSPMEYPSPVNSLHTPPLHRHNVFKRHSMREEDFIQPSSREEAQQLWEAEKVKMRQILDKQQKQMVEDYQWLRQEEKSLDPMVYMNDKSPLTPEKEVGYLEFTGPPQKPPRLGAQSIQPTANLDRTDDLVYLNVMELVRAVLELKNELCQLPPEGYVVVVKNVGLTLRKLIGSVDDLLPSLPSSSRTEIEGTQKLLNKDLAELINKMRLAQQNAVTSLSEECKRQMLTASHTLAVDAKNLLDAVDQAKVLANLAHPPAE
Here is the method: as §1

The next experiment deals with T14, SYK (Homo sapiens, UniProt P43405).
T14 construct: purchased Carna Biosciences
Here is the method: as §1

For another experiment, the target named is T15, MET (Homo sapiens, UniProt P08581).
T15 construct: purchased Carna Biosciences
Here is the method:
as §1

In a further experiment the target is T16, FGFR1 (Homo sapiens, UniProt P11362).
T16 construct: purchased Carna Biosciences
Here is the method: as §1

For the next experiment, the target named is T17, CSK (Homo sapiens, UniProt P41240).
T17 construct: purchased Carna Biosciences
Here is the method:
as §1

In the next experiment the target is T18, TIE2 (Homo sapiens, UniProt Q02763).
T18 construct: purchased Carna Biosciences
Here is the method:
as §1

For another experiment, the target named is T19, PDGFRa (Homo sapiens, UniProt P16234).
T19 construct: purchased Carna Biosciences
Here is the method: as §1

T4 sequence (P00519 whole entry): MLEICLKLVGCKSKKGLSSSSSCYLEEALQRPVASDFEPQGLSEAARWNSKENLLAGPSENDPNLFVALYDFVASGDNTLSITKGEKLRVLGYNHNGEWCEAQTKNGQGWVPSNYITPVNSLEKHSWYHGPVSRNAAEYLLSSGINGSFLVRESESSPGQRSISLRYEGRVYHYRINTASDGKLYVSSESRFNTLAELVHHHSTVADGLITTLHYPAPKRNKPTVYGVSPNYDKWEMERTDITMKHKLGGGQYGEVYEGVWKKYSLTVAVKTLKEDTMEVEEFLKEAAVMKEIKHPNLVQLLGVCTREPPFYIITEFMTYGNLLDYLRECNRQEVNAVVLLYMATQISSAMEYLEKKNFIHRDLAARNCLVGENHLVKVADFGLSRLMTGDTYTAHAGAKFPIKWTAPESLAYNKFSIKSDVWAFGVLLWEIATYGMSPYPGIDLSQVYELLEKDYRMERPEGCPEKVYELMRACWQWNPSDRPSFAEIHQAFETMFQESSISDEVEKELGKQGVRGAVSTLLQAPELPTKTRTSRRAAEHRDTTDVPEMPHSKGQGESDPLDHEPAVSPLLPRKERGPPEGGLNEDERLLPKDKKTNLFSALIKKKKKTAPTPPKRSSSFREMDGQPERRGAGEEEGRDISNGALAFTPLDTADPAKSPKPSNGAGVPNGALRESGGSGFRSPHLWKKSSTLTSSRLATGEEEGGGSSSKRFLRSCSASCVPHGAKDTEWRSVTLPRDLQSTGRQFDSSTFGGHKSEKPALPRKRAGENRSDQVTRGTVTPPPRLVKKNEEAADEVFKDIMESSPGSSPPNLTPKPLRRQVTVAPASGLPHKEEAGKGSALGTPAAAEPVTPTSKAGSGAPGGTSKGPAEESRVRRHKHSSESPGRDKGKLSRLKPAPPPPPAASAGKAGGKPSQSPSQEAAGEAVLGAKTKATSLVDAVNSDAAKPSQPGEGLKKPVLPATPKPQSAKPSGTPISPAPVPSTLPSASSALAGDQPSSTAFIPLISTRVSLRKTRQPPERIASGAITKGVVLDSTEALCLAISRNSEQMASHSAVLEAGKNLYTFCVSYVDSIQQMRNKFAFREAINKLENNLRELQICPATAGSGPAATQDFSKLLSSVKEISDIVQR

`CC(=O)Nc1ccc(C(=O)Nc2sc(Nc3ccccc3)nc2C(N)=O)cc1` [Compound 1, 5-(4-acetamidobenzamido)-2-(phenylamino)thiazole-4-carboxamide]: the half-inhibitory concentration (IC50) against IGF1R is more than 300 nM; against JAK3 it was more than 300 nM; on ITK it was more than 300 nM; on ABL, 290 nM; on SRC it was more than 300 nM; on TYRO3 it was more than 300 nM. For the same molecule, the IC50 against EphA2 is more than 300 nM; at FLT3, 95 nM; against KDR, 59 nM; against LCK, more than 300 nM; on TRKA it was more than 300 nM; at EphB4 it was more than 300 nM. The IC50 against PYK2, on SYK, at MET, against FGFR1, on CSK and on TIE2 was more than 300 nM in each case. On PDGFRa, this molecule came in with an IC50 of 150 nM.
